Source: patent publication US20240335424A1, “COMPOSITIONS AND METHODS FOR TREATING LIPOMA PAIN” (Raziel Therapeutics Ltd., priority 2021, published 2024)
Entries after “also recorded” stand apart in the source; their conditions may differ.

Experiments:
Type in all cases: in vivo, human
[1] = tested on: Dercum's disease (DD) lipomas; assay: Phase 2b clinical trial: lipoma pain by Comparative Pain Scale; conditions: for Pain Score: Average per patient, Mean / Pain score: All lipomas, Mean: Comparative Pain Scale 0-10; for Pain score: All lipomas, Mean / Change from baseline in Pain Score: All lipomas, Relative Change from baseline, Mean: per lipoma analysis
Excerpt: The clinical trial described herein was a double-blind, randomized, placebo-controlled phase 2b clinical trial for the evaluation of safety and efficacy of Compound 1 (5-(3,6-dibromo-9H-carbazol-9-yl)-N,N,N-trimethylpentan-1-aminium, provided as a chloride salt, also designated Compound 1A), in subjects having Dercum's disease (DD) lipomas. Study Objectives. The primary objective was to evaluate the average percent reduction in lipoma height on day 84 after injection vs. baseline in the treatment group compared to the placebo group. Efficacy was determined by ultrasound assessment of the lipoma/nodule dimensions after treatment vs. baseline. The key secondary objective was assessment of lipoma/nodule associated pain using the Comparative Pain Scale. Safety was assessed by frequency of adverse events and by change-from-baseline values for vital signs, clinical laboratory and ECG. Study Design. This was a double blind, multi-center, randomized, placebo-controlled clinical trial in DD subjects having lipomas. A total of 38 DD patients were enrolled into the study. Patients were randomized in approximately a 1:1 ratio into either the intervention or the placebo arm. Twenty (20) subjects, having a total of 125 lipomas, were treated with Compound 1. Eighteen (18) subjects, having a total of 110 lipomas, were treated with placebo. Once the study ended and codes were opened, 84 days after dosing. Subjects received their study treatment on a single occasion in multiple injections. Dosing was calculated according to lipoma size (diameter) as determined by ultrasound. Subjects were dosed in accordance with Table 1. Injections were perpendicular (90°) to injected skin surface and spread randomly, at least 1 cm apart. At least 4 lipomas/nodules, preferably 6, and no more than 8, were injected per subject. Compound 1 dose per injection site was 5 mg, and a distance of 1-3 cm between injection points was maintained, to allow good distribution of Compound 1 within lipoma fat. A maximal dose of up to 240 mg/subject (a total of 48 injections of 5 mg/injection) was allowed in this study and the highest actual tested dose was 200 mg/subject (40 injections into 4-8 lipomas). A total of 20 patients were treated with Compound 1 and a total of 18 patients were treated with placebo. Primary endpoint was the average percent reduction in lipoma/noduleheight on day 84 after injection vs baseline-evaluated by ultrasound in the Compound 1 treatment group compared to the placebo group. Key secondary endpoint was reduction in local pain score per lipoma/nodule on Day 84 vs. baseline as measured by the Comparative Pain Scale. Comparative pain scale ranked the pain from a score from 0 to 10. A score of 0 indicated no pain, a score of 1-3 indicated minor pain, a score of 4-6 indicated moderate pain and a score of 7-10 indicated severe pain. Pain was compared between the intervention (Compound 1) and placebo groups on 2 levels-(1) on the patient level and (2) by lipomas, i.e. comparison between all injected lipomas before and after injection. Study Drug. Compound 1 was administered as a ready to use liquid for injection into subcutaneous fat, supplied in a 1 vial kit. Each vial contains 250 mg Compound 1/5 mL (50 mg/ml) solution Compound 1 in a vehicle comprised of water, propylene glycol and surfactant. The formulation is described in Table 2. Placebo was a solution comprised of vehicle only. Each injection of Compound 1 and placebo contained 0.1 ml. The vehicle was a ready-to-use liquid for injection into subcutaneous fat, supplied in a 1-vial kit. One vial contained 5 mL and had similar composition as the Compound 1 drug product, without the active substance. The components are: Tween-80, propylene glycol, benzyl alcohol, and water. The vehicle was manufactured and packed by […] (Israel) and complies with cGMP requirements. […]

[2] = tested on: Dercum's disease (DD) lipomas; assay: Phase 2b clinical trial: lipoma/nodule height by ultrasound; conditions: day 84 after injection vs. baseline, compared to placebo
Excerpt: The clinical trial described herein was a double-blind, randomized, placebo-controlled phase 2b clinical trial for the evaluation of safety and efficacy of Compound 1 (5-(3,6-dibromo-9H-carbazol-9-yl)-N,N,N-trimethylpentan-1-aminium, provided as a chloride salt, also designated Compound 1A), in subjects having Dercum's disease (DD) lipomas. Study Objectives. The primary objective was to evaluate the average percent reduction in lipoma height on day 84 after injection vs. baseline in the treatment group compared to the placebo group. Efficacy was determined by ultrasound assessment of the lipoma/nodule dimensions after treatment vs. baseline. The key secondary objective was assessment of lipoma/nodule associated pain using the Comparative Pain Scale. Safety was assessed by frequency of adverse events and by change-from-baseline values for vital signs, clinical laboratory and ECG. Study Design. […] Dosing was calculated according to lipoma size (diameter) as determined by ultrasound. […] Primary endpoint was the average percent reduction in lipoma/noduleheight on day 84 after injection vs baseline-evaluated by ultrasound in the Compound 1 treatment group compared to the placebo group. Key secondary endpoint was reduction in local pain score per lipoma/nodule on Day 84 vs. baseline as measured by the Comparative Pain Scale. […]

[3] = Phase 2b clinical trial: safety (adverse events, vital signs, clinical laboratory, ECG); conditions: up to 200 mg/subject, subcutaneous injection into lipomas
Excerpt: The clinical trial described herein was a double-blind, randomized, placebo-controlled phase 2b clinical trial for the evaluation of safety and efficacy of Compound 1 (5-(3,6-dibromo-9H-carbazol-9-yl)-N,N,N-trimethylpentan-1-aminium, provided as a chloride salt, also designated Compound 1A), in subjects having Dercum's disease (DD) lipomas.
Study Objectives. The primary objective was to evaluate the average percent reduction in lipoma height on day 84 after injection vs. baseline in the treatment group compared to the placebo group. Efficacy was determined by ultrasound assessment of the lipoma/nodule dimensions after treatment vs. baseline. The key secondary objective was assessment of lipoma/nodule associated pain using the Comparative Pain Scale. Safety was assessed by frequency of adverse events and by change-from-baseline values for vital signs, clinical laboratory and ECG.
Study Design. This was a double blind, multi-center, randomized, placebo-controlled clinical trial in DD subjects having lipomas. A total of 38 DD patients were enrolled into the study. Patients were randomized in approximately a 1:1 ratio into either the intervention or the placebo arm. Twenty (20) subjects, having a total of 125 lipomas, were treated with Compound 1. Eighteen (18) subjects, having a total of 110 lipomas, were treated with placebo. Once the study ended and codes were opened, 84 days after dosing.
At least 4 lipomas/nodules, preferably 6, and no more than 8, were injected per subject. Compound 1 dose per injection site was 5 mg, and a distance of 1-3 cm between injection points was maintained, to allow good distribution of Compound 1 within lipoma fat. A maximal dose of up to 240 mg/subject (a total of 48 injections of 5 mg/injection) was allowed in this study and the highest actual tested dose was 200 mg/subject (40 injections into 4-8 lipomas). A total of 20 patients were treated with Compound 1 and a total of 18 patients were treated with placebo.

[4] = Day 84, compared to the placebo group
[5] = Visit 2 - Baseline/Treatment (Day 0), prior to injection
[6] = Visit 5 - Day 28 post treatment
[7] = Visit 6 - Day 56 post treatment
[8] = Visit 7 - Day 84 post treatment

Compound: C[N+](C)(C)CCCCCn1c2ccc(Br)cc2c2cc(Br)ccc21 [Compound 1, 5-(3,6-dibromo-9H-carbazol-9-yl)-N,N,N-trimethylpentan-1-aminium]
- average pain reduction per patient (by-patient analysis) ([1]; 84 days after treatment, vs. 36.82% in placebo, P=0.98 as printed): 56.37%
- average pain reduction per lipoma (all-lipoma analysis) ([1]; 84 days after treatment, vs. 37.50% in placebo, p=0.0004 t-test, p 0.079 mixed model): 59.06%
- reduction in pain vs. placebo, by-lipoma analysis [1, 4]: significant reduction in pain per lipoma; also recorded: statistically significant reduction in pain
- reduction of pain vs. placebo, per-patient analysis [1, 4]: a trend for reduction of pain
- Pain Score: Average per patient, Mean [1, 5]: 4.89
- Pain score: All lipomas, Mean [1, 5]: 4.86
- Change from baseline in Pain Score: Average per patient, Relative Change from baseline, Mean [1, 6]: −41.76%
- Pain Score: Average per patient, Mean [1, 6]: 2.82
- Pain score: All lipomas, Mean [1, 6]: 2.72
- Change from baseline in Pain Score: All lipomas, Relative Change from baseline, Mean [1, 6]: −41.55%
- Change from baseline in Pain Score: Average per patient, Relative Change from baseline, Mean [1, 7]: −43.53%
- Pain Score: Average per patient, Mean [1, 7]: 2.56
- Pain score: All lipomas, Mean [1, 7]: 2.38
- Change from baseline in Pain Score: All lipomas, Relative Change from baseline, Mean [1, 7]: −46.74%
- Change from baseline in Pain Score: Average per patient, Relative Change from baseline, Mean [1, 8]: −56.37%
- Pain Score: Average per patient, Mean [1, 8]: 2.03
- Pain score: All lipomas, Mean [1, 8]: 1.86
- Change from baseline in Pain Score: All lipomas, Relative Change from baseline, Mean [1, 8]: −59.06%
- effect of a single dose injected into lipomas on lipoma-associated pain ([1]; single dose, via a single injection or multiple injections): significantly alleviates lipoma-associated pain
- reduction in lipoma height [2]: not significant
- adverse events, kind [3]: mostly injection site edema pain and pruritus
- changes in blood parameters [3]: no clinically significant changes in blood parameters
- serious adverse events [3]: no reported serious adverse events
- tolerability [3]: generally well tolerated
